Test results as given in ChEMBL document CHEMBL4715821, “Discovery of 4-ethoxy-7H-pyrrolo[2,3-d]pyrimidin-2-amines as potent, selective and orally bioavailable LRRK2 inhibitors” (Bioorg Med Chem Lett, 2018).

How the values were obtained:
[1] = molecular target: Serine/threonine-protein kinase D3 (Homo sapiens) (UniProt O94806); test: Inhibition of wild-type human partial length PRKD3 (S543 to E863 residues) expressed in bacterial expression system assessed as residual activity at 1 uM by Kinomescan method relative to control
[2] = molecular target: CDK6/cyclin D1 (Homo sapiens) (UniProt P24385+Q00534); test: Inhibition of wild-type human full length CDK6 (M1 to A326 residues)/cyclin D1 expressed in mammalian expression system assessed as residual activity at 1 uM by Kinomescan method relative to control
[3] = molecular target: Activated CDC42 kinase 1 (Homo sapiens) (UniProt Q07912); test: Inhibition of ACK1 (unknown origin) assessed as residual activity at 1 uM relative to control
[4] = molecular target: Casein kinase I isoform gamma-1 (Homo sapiens) (UniProt Q9HCP0); test: Inhibition of CK1g1 (unknown origin) assessed as residual activity at 1 uM by Kinomescan method relative to control
[5] = molecular target: Serine/threonine-protein kinase Nek3 (Homo sapiens) (UniProt P51956); test: Inhibition of wild-type human full length NEK3 (M1 to R506 residues) expressed in mammalian expression system assessed as residual activity at 1 uM by Kinomescan method relative to control
[6] = molecular target: Serine/threonine-protein kinase PLK1 (Homo sapiens) (UniProt P53350); test: Inhibition of wild-type human partial length PLK1 (A33 to F325 residues) expressed in mammalian expression system assessed as residual activity at 1 uM by Kinomescan method relative to control
[7] = molecular target: CDK3/Cyclin E (Homo sapiens) (UniProt P24864+Q00526); test: Inhibition of wild-type human full length CDK3 (M1 to H305 residues)/Cyclin E expressed in bacterial expression system at 1 uM by Kinomescan method; design: scale not given: the % may be the effect or the level left
[8] = molecular target: Tyrosine-protein kinase JAK3 (Homo sapiens) (UniProt P52333); test: Inhibition of wild type human partial length JAK3 (I781 to S1124 residues) expressed in mammalian expression system assessed as residual activity at 1 uM by Kinomescan method relative to control
[9] = molecular target: Mitogen-activated protein kinase 8 (Homo sapiens) (UniProt P45983); test: Inhibition of wild-type human full length JNK1 (M1 to Q384 residues) expressed in mammalian expression system assessed as residual activity at 1 uM by Kinomescan method relative to control
[10] = In vivo inhibition of LRRK2 in C57BL6 mouse assessed as reduction in Ser935 phosphorylation in brain at 45 mg/kg, po after 1 hr by Western blot analysis; format: functional; design: scale not given: the % may be the effect or the level left
[11] = molecular target: Bone morphogenetic protein receptor type-2 (Homo sapiens) (UniProt Q13873); test: Inhibition of wild-type human partial length BMPR2 (R179 to Q526 residues) expressed in mammalian expression system assessed as residual activity at 1 uM by Kinomescan method relative to control
[12] = molecular target: Receptor-interacting serine/threonine-protein kinase 3 (Homo sapiens) (UniProt Q9Y572); test: Inhibition of wild-type human partial length RIPK3 (M1 to Q307 residues) expressed in bacterial expression system assessed as residual activity at 1 uM by Kinomescan method relative to control
[13] = Lipophilicity, logD of compound at pH 7.4; conditions: buffer
[14] = molecular target: Ephrin type-A receptor 8 (Homo sapiens) (UniProt P29322); test: Inhibition of human wild type partial length EPHA8 (Q608 to C920 residues) expressed in bacterial expression system assessed as residual activity at 1 uM by Kinomescan method relative to control
[15] = molecular target: Casein kinase II subunit alpha (Homo sapiens) (UniProt P68400); test: Inhibition of CK2alpha (unknown origin) assessed as residual activity at 1 uM by Kinomescan method relative to control
[16] = molecular target: Mitogen-activated protein kinase kinase kinase 9 (Homo sapiens) (UniProt P80192); test: Inhibition of wild-type human partial length MLK1 (V88 to W426 residues) expressed in bacterial expression system assessed as residual activity at 1 uM by Kinomescan method relative to control
[17] = molecular target: Mitogen-activated protein kinase kinase kinase kinase 2 (Homo sapiens) (UniProt Q12851); test: Inhibition of wild-type human partial length MAP4K2 (M1 to G318 residues) expressed in mammalian expression system assessed as residual activity at 1 uM by Kinomescan method relative to control
[18] = molecular target: Tyrosine-protein kinase Mer (Homo sapiens) (UniProt Q12866); test: Inhibition of wild-type human partial length c-MER (R557 to L884 residues) expressed in bacterial expression system assessed as residual activity at 1 uM by Kinomescan method relative to control
[19] = molecular target: G protein-coupled receptor kinase 6 (Homo sapiens) (UniProt P43250); test: Inhibition of GRK6 (unknown origin) assessed as residual activity at 1 uM by Kinomescan method relative to control
[20] = molecular target: Serine/threonine-protein kinase 25 (Homo sapiens) (UniProt O00506); test: Inhibition of wild-type human partial length YSK1 (V14 to H295 residues) expressed in bacterial expression system assessed as residual activity at 1 uM by Kinomescan method relative to control
[21] = molecular target: Cyclin-dependent kinase 7/ cyclin H (Homo sapiens) (UniProt P51946+P50613); test: Inhibition of wild-type human full length CDK7 (M1 to L344 residues)/cyclin H expressed in mammalian expression system assessed as residual activity at 1 uM by Kinomescan method relative to control
[22] = molecular target: Serine/threonine-protein kinase 16 (Homo sapiens) (UniProt O75716); test: Inhibition of wild-type human partial length STK16 (G11 to I305 residues) expressed in bacterial expression system assessed as residual activity at 1 uM by Kinomescan method relative to control
[23] = molecular target: NUAK family SNF1-like kinase 2 (Homo sapiens) (UniProt Q9H093); test: Inhibition of wild-type human partial length SNARK (P22 to A333 residues) expressed in mammalian expression system assessed as residual activity at 1 uM by Kinomescan method relative to control
[24] = molecular target: Tau-tubulin kinase 2 (Homo sapiens) (UniProt Q6IQ55); test: Inhibition of TTBK2 (unknown origin) assessed as residual activity at 1 uM by Kinomescan method relative to control
[25] = molecular target: Serine/threonine-protein kinase N2 (Homo sapiens) (UniProt Q16513); test: Inhibition of wild-type human partial length PKN2 (E634 to C984 residues) expressed in bacterial expression system assessed as residual activity at 1 uM by Kinomescan method relative to control
[26] = molecular target: MAP kinase-activated protein kinase 5 (Homo sapiens) (UniProt Q8IW41); test: Inhibition of wild-type human partial length MAPKAPK5 (M1 to D322 residues) expressed in mammalian expression system assessed as residual activity at 1 uM by Kinomescan method relative to control
[27] = molecular target: Mitogen-activated protein kinase 3 (Homo sapiens) (UniProt P27361); test: Inhibition of wild-type human full length ERK1 (M1 to P379 residues) expressed in bacterial expression system assessed as residual activity at 1 uM by Kinomescan method relative to control
Mitogen-activated protein kinase 3 (Homo sapiens), sequence (P27361 whole entry, the tested form may be a part): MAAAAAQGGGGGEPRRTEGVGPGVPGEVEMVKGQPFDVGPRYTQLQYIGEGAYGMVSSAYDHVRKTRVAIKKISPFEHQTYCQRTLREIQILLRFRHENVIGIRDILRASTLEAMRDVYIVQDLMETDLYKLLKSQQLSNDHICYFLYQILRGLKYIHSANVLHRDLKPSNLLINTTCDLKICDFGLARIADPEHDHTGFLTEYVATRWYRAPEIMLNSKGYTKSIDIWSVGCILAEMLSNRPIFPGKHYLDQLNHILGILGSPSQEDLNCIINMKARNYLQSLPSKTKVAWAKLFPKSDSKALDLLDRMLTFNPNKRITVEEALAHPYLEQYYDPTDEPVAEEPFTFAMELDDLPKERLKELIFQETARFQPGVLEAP

G protein-coupled receptor kinase 6 (Homo sapiens), sequence (P43250 whole entry, looked up, the tested form may be a part): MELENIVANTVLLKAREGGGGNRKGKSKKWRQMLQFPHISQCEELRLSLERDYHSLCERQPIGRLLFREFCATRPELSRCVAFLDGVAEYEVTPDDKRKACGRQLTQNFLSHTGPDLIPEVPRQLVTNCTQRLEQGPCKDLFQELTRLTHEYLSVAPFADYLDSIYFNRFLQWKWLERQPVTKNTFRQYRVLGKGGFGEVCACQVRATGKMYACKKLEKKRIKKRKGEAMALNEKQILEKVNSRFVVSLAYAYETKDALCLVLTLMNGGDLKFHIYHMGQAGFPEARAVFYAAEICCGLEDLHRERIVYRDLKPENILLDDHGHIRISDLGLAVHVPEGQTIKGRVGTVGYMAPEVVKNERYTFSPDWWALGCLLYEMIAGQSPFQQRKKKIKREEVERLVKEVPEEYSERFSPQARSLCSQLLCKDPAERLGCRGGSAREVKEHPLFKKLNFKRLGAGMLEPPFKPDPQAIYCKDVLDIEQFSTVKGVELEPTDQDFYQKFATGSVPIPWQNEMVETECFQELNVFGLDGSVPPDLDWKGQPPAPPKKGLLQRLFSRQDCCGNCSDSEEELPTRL
Mitogen-activated protein kinase 8 (Homo sapiens), sequence (P45983 whole entry, the tested form may be a part): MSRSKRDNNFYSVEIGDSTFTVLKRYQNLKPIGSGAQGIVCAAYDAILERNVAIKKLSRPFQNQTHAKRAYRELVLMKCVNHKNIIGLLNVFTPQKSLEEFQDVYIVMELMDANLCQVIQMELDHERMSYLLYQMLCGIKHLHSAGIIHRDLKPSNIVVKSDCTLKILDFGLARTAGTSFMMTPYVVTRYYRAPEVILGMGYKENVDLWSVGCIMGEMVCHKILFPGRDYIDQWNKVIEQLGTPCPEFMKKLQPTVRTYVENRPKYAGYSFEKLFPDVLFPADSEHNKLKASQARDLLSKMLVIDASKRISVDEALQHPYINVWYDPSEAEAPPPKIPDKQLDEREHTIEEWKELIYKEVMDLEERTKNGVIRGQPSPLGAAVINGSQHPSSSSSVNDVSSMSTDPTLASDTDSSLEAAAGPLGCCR
Serine/threonine-protein kinase Nek3 (Homo sapiens), sequence (P51956 whole entry, the tested form may be a part): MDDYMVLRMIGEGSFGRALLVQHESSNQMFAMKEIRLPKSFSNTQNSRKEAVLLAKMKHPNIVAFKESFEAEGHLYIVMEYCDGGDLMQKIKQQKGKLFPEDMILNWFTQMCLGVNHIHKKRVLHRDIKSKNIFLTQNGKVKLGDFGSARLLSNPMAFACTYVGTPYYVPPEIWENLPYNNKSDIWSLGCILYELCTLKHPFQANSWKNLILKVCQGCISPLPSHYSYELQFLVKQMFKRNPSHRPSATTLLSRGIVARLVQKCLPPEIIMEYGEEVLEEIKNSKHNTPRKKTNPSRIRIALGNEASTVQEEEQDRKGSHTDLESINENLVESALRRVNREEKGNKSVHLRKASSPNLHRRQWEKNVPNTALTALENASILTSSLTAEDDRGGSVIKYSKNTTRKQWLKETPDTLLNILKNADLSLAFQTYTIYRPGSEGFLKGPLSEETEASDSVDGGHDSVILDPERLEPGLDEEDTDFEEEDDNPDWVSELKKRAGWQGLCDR
Serine/threonine-protein kinase D3 (Homo sapiens), sequence (O94806 whole entry, the tested form may be a part): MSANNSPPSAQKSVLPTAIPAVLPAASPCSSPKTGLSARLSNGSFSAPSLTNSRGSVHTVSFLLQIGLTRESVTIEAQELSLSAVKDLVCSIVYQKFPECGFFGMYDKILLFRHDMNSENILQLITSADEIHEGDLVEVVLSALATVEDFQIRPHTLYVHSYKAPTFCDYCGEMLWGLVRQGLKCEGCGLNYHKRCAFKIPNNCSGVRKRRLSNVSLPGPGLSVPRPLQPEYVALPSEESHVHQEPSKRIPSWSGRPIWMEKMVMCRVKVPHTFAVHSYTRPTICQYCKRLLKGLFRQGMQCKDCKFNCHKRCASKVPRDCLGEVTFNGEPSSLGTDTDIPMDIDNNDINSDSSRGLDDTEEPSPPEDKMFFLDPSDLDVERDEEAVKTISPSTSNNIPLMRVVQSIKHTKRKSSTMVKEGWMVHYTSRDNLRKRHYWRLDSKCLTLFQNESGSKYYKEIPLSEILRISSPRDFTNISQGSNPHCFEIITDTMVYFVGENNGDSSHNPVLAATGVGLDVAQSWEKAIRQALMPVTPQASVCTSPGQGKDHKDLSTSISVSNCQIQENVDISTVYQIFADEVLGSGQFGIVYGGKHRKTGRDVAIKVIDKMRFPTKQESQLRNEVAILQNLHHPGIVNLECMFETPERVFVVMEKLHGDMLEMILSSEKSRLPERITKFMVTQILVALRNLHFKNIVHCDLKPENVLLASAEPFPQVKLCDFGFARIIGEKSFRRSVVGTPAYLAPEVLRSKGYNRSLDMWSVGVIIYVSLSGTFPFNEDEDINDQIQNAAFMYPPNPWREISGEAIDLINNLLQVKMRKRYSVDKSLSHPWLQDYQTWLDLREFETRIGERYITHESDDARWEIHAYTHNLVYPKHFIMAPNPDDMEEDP
Tau-tubulin kinase 2 (Homo sapiens), sequence (Q6IQ55 whole entry, the tested form may be a part): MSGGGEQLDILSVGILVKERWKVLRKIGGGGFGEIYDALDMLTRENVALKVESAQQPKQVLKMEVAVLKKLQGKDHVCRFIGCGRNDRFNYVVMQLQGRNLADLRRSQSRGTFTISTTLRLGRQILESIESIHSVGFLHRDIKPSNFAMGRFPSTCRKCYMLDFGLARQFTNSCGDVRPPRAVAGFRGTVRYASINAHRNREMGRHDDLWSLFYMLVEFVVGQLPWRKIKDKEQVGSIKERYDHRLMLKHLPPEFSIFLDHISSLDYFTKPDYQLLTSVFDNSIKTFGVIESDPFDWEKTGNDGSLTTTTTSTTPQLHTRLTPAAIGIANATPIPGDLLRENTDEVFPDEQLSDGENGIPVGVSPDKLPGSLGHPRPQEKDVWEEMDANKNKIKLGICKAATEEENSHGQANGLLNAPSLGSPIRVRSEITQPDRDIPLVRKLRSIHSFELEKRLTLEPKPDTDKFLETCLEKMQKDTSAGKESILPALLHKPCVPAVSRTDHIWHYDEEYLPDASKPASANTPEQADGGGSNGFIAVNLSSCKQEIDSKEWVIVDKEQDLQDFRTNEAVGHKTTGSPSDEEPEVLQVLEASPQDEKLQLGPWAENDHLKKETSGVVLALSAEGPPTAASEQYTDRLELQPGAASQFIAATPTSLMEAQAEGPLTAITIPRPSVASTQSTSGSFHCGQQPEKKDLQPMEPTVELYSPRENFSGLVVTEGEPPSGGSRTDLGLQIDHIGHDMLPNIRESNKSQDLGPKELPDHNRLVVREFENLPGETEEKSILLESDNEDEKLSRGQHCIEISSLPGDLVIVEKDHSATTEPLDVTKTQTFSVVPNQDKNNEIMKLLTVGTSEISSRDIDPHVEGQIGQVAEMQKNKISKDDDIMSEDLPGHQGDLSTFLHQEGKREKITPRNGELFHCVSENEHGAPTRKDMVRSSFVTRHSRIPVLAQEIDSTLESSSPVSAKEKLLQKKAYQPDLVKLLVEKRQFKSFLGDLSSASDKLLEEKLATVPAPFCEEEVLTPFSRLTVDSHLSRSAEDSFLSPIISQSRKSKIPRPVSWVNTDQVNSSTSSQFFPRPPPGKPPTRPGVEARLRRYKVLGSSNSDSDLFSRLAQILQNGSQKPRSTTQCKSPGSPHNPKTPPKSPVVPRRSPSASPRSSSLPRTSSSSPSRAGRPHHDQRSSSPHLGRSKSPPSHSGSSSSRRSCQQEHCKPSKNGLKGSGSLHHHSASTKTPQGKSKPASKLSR
CDK3/Cyclin E (Homo sapiens), sequence (P24864 whole entry, looked up, the tested form may be a part): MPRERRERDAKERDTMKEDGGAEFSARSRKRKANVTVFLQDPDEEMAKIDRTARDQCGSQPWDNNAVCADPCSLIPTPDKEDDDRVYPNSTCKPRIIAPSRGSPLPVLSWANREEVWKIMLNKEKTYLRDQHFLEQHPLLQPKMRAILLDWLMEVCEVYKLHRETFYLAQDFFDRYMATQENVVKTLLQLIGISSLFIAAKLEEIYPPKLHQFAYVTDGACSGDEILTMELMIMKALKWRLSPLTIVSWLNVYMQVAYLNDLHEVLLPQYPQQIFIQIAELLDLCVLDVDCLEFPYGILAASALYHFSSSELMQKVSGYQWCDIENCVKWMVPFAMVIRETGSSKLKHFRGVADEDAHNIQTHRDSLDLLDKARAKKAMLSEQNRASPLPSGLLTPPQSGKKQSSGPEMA
CDK3/Cyclin E (Homo sapiens), sequence (Q00526 whole entry, looked up, the tested form may be a part): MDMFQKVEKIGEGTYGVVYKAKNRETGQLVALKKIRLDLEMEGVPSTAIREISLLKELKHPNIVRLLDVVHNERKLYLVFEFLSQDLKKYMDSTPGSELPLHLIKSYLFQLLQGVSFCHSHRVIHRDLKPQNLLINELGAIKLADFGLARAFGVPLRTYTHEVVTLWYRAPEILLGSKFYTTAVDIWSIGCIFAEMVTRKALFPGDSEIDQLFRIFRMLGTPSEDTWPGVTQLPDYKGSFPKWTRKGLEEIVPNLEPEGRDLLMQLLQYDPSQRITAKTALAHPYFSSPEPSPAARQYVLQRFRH

CCOc1nc(Nc2ccc(C(=O)N3CCOCC3)cc2OC)nc2[nH]ccc12
Activity [1]: 63.7% | Activity [2]: 98.8% | Activity [3]: 27.9% | Activity [4]: 95% | Activity [5]: 104% | Activity [6]: 87.8% | Activity [7]: 87.7% | Activity [8]: 109% | Activity [9]: 40.5% | Activity [10]: 50% | Activity [11]: 72.2% | Activity [12]: 108% | logD [13]: 4.5 | Activity [14]: 94.4% | Activity [15]: 79.9% | Activity [16]: 83.9% | Activity [17]: 90.2% | Activity [18]: 97% | Activity [19]: 95.6% | Activity [20]: 95.4% | Activity [21]: 93.8% | Activity [22]: 98.7% | Activity [23]: 98.5% | Activity [24]: 104% | Activity [25]: 101% | Activity [26]: 81.8% | Activity [27]: 95.7%
